{
  "source": "patent US11642316B2",
  "about": "“Water-soluble curcumin mixture with high bioavailability and preparation method and application thereof” (HENAN ZHONGDA HENGYUAN BIOTECHNOLOGY STOCK CO., LTD., priority 2021, dated 2023)",
  "assay": "Bioavailability test of water-soluble curcumin mixture in rats (plasma, HPLC-MS/MS)",
  "format": "in vivo",
  "settings": "intragastric administration, 200 mg·kg^−1 calculated as curcumin, plasma 0.167-12 h",
  "description": "After experimental testing in rats, the bioavailability test method of water-soluble curcumin mixture was verified according to the “Guidelines for Validation of 9012 Biological Sample Quantitative Analysis Method” in the fourth appendix of the Pharmacopoeia of the People's Republic of China (2015 Edition). Specific steps are as follows:\n24 Healthy SD (spontaneous mutant Danforth's short tail) rats were randomly divided into 4 groups (6 in each group) after being adaptively reared for one week;\nIn each group, about 0.3 mL of blood was collected from the orbit at 0.167, 0.5, 1, 1.5, 2, 3, 5, 8 and 12 hours after administration, and centrifuged at 4000 rpm for 10 minutes. The plasma was stored at −20° C. for later use.\nSeparating 100 μL of plasma, adding 0.3 mL of ethyl acetate, mixing for 2 min, centrifuging at 4000 rpm for 10 min, and separating the supernatant; adding 0.3 mL of ethyl acetate to the precipitate, mixing for 2 min, and centrifuging at 4000 rpm for 10 min, vacuum drying at 40° C. Adding 100 μL of methanol to the residue, wetting the centrifuge tube, mixing for 2 min, filtering with 0.22 μm microporous membrane, analyzing and testing.\nHPLC-MS/MS with emodin as the internal standard was used for detection, and DAS2.0 software was used to calculate the pharmacokinetic parameters and compare the relative bioavailability.",
  "data": [
    {"compound": "COc1cc(/C=C/C(=O)CC(=O)/C=C/c2ccc(O)c(OC)c2)ccc1O", "note": "[curcumin]", "values": [
      {"measurement": "AUC (012 h)", "setting": "SD rats", "result": 140.36, "unit": "ng·h/mL"},
      {"measurement": "AUC(0-t)", "setting": "SD, rat, plasma, po, 200 mg/kg, read-out: AUC (012 h)", "result": 108, "unit": "ng·h/mL"}
    ]}
  ]
}
